The values below come from PubChem BioAssay AID212 (DTP/NCI, 2004).

The subject of this test is BDF1 mice, colon carcinoma 38 sc, T/C %. The test can be described thus: NCI In Vivo Anticancer Drug Screen. Data for tumor model Colon Carcinoma 38 (subcutaneous) in B6D2F1 (BDF1) mice. Particulars: endpoint: median tumor weight (est.), schedule: Q07DX002 (ip), higher = larger tumour. How it is done: The antitumor activity of compounds was measured in mice bearing transplantable tumors. Survival or tumor size were measured and the results are expressed as the measurement made in the treated group (T) divided by the measurement made in the vehicle treated control group (C). The tumor model used in this assay is Colon Carcinoma 38 (subcutaneous) in B6D2F1 (BDF1) mice

Where [1] appears, read: dose: 25.0 mg/kg/injection, vehicle: Klucel (hydroxypropylcellulose) (HPC).
The mark [2] stands for this setting: dose: 25.0 mg/kg/injection, vehicle: saline with Tween-80.
Setting [3] is: dose: 100.0 mg/kg/injection, vehicle: saline with Tween-80.
Setting [4] is: dose: 12.5 mg/kg/injection, vehicle: saline with Tween-80.
Setting [5] is: dose: 50.0 mg/kg/injection, vehicle: saline with Tween-80.
Where [6] appears, read: dose: 200.0 mg/kg/injection, vehicle: saline with Tween-80.
The mark [7] stands for this setting: dose: 12.5 mg/kg/injection, vehicle: saline.
[8] abbreviates: dose: 50.0 mg/kg/injection, vehicle: saline.
[9] abbreviates: dose: 100.0 mg/kg/injection, vehicle: Klucel (hydroxypropylcellulose) (HPC).
[10] abbreviates: dose: 200.0 mg/kg/injection, vehicle: Klucel (hydroxypropylcellulose) (HPC).
Where [11] appears, read: dose: 400.0 mg/kg/injection, vehicle: Klucel (hydroxypropylcellulose) (HPC).
Setting [12] is: dose: 12.5 mg/kg/injection, vehicle: Klucel (hydroxypropylcellulose) (HPC).
[13] abbreviates: dose: 25.0 mg/kg/injection, vehicle: saline.
Setting [14] is: dose: 100.0 mg/kg/injection, vehicle: saline.
Setting [15] is: dose: 200.0 mg/kg/injection, vehicle: saline.
Where [16] appears, read: dose: 400.0 mg/kg/injection, vehicle: saline.

Values joined by “and” are separate entries in the source; they are usually repeats but may differ in a detail not shown here. Equal entries are not always repeated. Records with an inconclusive call do not appear.

`C=C(C)C1C2CC3(C)C4(CO4)C4OC4C3(O)C1C(=O)O2` (stereo not given): the T/C is 81 % of control (dose: 0.38 mg/kg/injection, vehicle: Klucel (hydroxypropylcellulose) (HPC)); 104 % of control (dose: 0.75 mg/kg/injection, vehicle: Klucel (hydroxypropylcellulose) (HPC)); 112 % of control (dose: 1.5 mg/kg/injection, vehicle: Klucel (hydroxypropylcellulose) (HPC)).
Regarding `CCC[CH2][Sn]1([CH2]CCC)[O]C2C(CO)OC(n3ccc(N)nc3=O)C2[O]1` (stereo not given), the T/C is, setting by setting: (dose: 1.56 mg/kg/injection, vehicle: Klucel (hydroxypropylcellulose) (HPC)) 61 % of control and 72 % of control; under setting [1], 91 % of control.
Take `COc1ccc(C(Cn2ccnc2)Sc2ccc(Cl)c(Cl)c2)cc1` (stereo not given): the T/C is, setting by setting: under setting [2], 63 % of control and 87 % of control; under setting [3], 114 % of control.
For the molecule `CCC12C[N+]3([O-])CCc4c([nH]c5ccccc45)C(C(=O)OC)(c4cc5c(cc4OC)N(C)C4C(O)(C(=O)OC)C(OC(C)=O)C6(CC)C=CCN7CCC54C76)CC(C3)C1O2` (stereo not given), the T/C runs as follows: (dose: 1.25 mg/kg/injection, vehicle: water) 113 % of control; (dose: 2.5 mg/kg/injection, vehicle: water) 90 % of control; (dose: 5.0 mg/kg/injection, vehicle: water) 84 % of control; (dose: 10.0 mg/kg/injection, vehicle: water) 108 % of control; (dose: 20.0 mg/kg/injection, vehicle: water) 82 % of control; (dose: 40.0 mg/kg/injection, vehicle: water) 94 % of control.
For the molecule `CN=S(=O)(OCCCCCOS(=O)(=NC)c1ccccc1)c1ccccc1` (stereo not given), the T/C under setting [4] was 58 % of control, the T/C under setting [2] was 74 % of control, the T/C under setting [5] was 69 % of control and the T/C under setting [6] was 59 % of control.
`C(=N/NC1=NCCN1)/c1c2ccccc2c(/C=N\NC2=NCCN2)c2ccccc12`: the T/C is, setting by setting: (dose: 5.0 mg/kg/injection, vehicle: suspension in saline) 100 % of control; (dose: 10.0 mg/kg/injection, vehicle: suspension in saline) 109 % of control; (dose: 20.0 mg/kg/injection, vehicle: suspension in saline) 110 % of control; (dose: 40.0 mg/kg/injection, vehicle: suspension in saline) 70 % of control.
Regarding `C=CS(=O)(=O)c1ccccc1`, the T/C (dose: 6.25 mg/kg/injection, vehicle: saline with Tween-80) is 91 % of control; the T/C under setting [4] is 66 % of control; the T/C under setting [7] was 97 % of control; the T/C under setting [2] was 174 % of control; the T/C under setting [5] is 150 % of control; the T/C under setting [8] was 100 % of control. Further, the T/C under setting [3] was 109 % of control.
Turning to `O=Cc1ccccc1`, the T/C by setting is: under setting [1], 77 % of control; under setting [2], 69 % of control; (dose: 50.0 mg/kg/injection, vehicle: Klucel (hydroxypropylcellulose) (HPC)) 83 % of control; under setting [5], 77 % of control; under setting [9], 98 % of control; under setting [3], 108 % of control. Besides, the T/C by setting is: under setting [10], 60 % of control; under setting [6], 112 % of control; under setting [11], 97 % of control.
As to `Ic1ncnc2c1ncn2C1CCCO1` (stereo not given), the T/C was 68 % of control and 70 % of control under setting [12]; 52 % of control and 68 % of control under setting [1]; 56 % of control and 80 % of control under setting [9]; 81 % of control under setting [10]; 55 % of control under setting [11].
Turning to `C[Si](C)(C)O/C=C1/CCOC1=O`, the T/C was 84 % of control under setting [13]; 86 % of control under setting [8]; 84 % of control under setting [14]; 95 % of control under setting [15]; 105 % of control under setting [16]; 78 % of control (dose: 800.0 mg/kg/injection, vehicle: saline).
As to `N=C(N)c1ccc(/C=C/c2ccc(C(=N)N)cc2)cc1`, the T/C under setting [12] is 73 % of control; the T/C under setting [1] was 114 % of control; the T/C (dose: 36.0 mg/kg/injection, vehicle: saline with Tween-80) is 67 % of control.
In the case of `CCCCCCCCCCCCCCCC(=O)Nc1ccn(C2OC(CO)C(O)C2O)c(=O)n1` (stereo not given), the T/C is 41 % of control under setting [7]; 88 % of control under setting [13]; 50 % of control under setting [8]; 5 % of control under setting [14]; 16 % of control under setting [15]; 1 % of control under setting [16].
Regarding `CC(C)NC(=O)OCc1c(COC(=O)NC(C)C)c(-c2ccc(Cl)c(Cl)c2)n2c1CCC2`, the T/C was 82 % of control and 99 % of control (dose: 12.5 mg/kg/injection, vehicle: distilled water + Tween-80); 114 % of control and 94 % of control and 107 % of control (dose: 25.0 mg/kg/injection, vehicle: distilled water + Tween-80); 53 % of control and 67 % of control (dose: 50.0 mg/kg/injection, vehicle: distilled water + Tween-80).
